The source of these data is patent US20230159511A1, “TETRAHYDROISOQUINOLINE COMPOUNDS AS NRF2 ACTIVATORS” (C4X Discovery Limited, priority 2020, published 2023).

Experiment [1] has as its target T1, human KEAP1 (N-term, residues 321-609) (Homo sapiens, UniProt Q14145).
T1 construct: human KEAP1 (N-term, residues 321-609)
The experiment can be described thus: KEAP1 Kelch Fluorescence Polarization (FP) Assay. Type of experiment: binding. The note with it: inhibition of Kelch domain-NRF2 interaction; 2 nM FITC-labelled NRF2 peptide, 25 nM KEAP1, 1 h room temperature; compounds below 10 nM cannot be differentiated. The gist of the method:
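Compounds in 12-point curves (top 10 μM) displaced 2 nM FITC-labelled NRF2 peptide from 25 nM KEAP1 residues 321-609 over 1 h at room temperature. Polarization read at 470/530 nm, window set by 50 μM unlabelled peptide; four-parameter fit gave IC50, floor 10 nM.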

Experiment [2] concerns NRF2 mediated gene NAD(P)H:quinone acceptor oxidoreductase 1 (NQO1) in BEAS-2B cells. Put plainly: Beas2B NQO1 mRNA Cell Based Assay. Further details: species or system human. The following applies: Homo sapiens; BEAS-2B cells, compound for 24 h; increase in NQO1 mRNA compared to vehicle (0.1% DMSO) control; read-out: EC50. The gist of the method: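 BEAS-2B cells treated 24 h with compound; NQO1 mRNA measured by one-step TaqMan RT-PCR on crude lysates, normalised to beta actin by ΔΔCT. Fold increase over 0.1% DMSO vehicle; EC50 from four-parameter logistic fit.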

T1 sequence (Q14145 321-609): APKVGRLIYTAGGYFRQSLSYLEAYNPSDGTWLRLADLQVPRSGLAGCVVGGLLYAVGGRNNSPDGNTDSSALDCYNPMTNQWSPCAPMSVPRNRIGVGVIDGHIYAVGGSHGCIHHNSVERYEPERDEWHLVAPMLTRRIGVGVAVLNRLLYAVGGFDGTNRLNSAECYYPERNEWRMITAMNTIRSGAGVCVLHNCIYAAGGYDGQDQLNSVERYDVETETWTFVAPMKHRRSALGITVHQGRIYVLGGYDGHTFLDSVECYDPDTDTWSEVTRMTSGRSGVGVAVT

The compound `CNC(=O)[C@@]1(C)CCCC[C@H]1C(=O)N1CCc2c(Cl)cc(F)c(OCc3nnn(C)c3C(F)F)c2[C@H]1CN1CCCC1=O` [Example 109, (1S,2R)-2-((S)-5-chloro-8-((5-(difluoromethyl)-1-methyl-1H-1,2,3-triazol-4-yl)methoxy)-7-fluoro-1-((2-oxopyrrolidin-1-yl)methyl)-1,2,3,4-tetrahydroisoquinoline-2-carbonyl)-N,1-dimethylcyclohexane-1-carboxamide] came in with an IC50 in experiment [1] of 7.5 nM. Also, in experiment [2], the EC50 came to 140 nM.
Taken in the same sequence, the figures for `CNC(=O)[C@@]1(C)CCCC[C@H]1C(=O)N1CCc2c(Cl)cc(F)c(OCc3cn(C)nn3)c2[C@H]1CN1CC2(CC2)CC1=O` [Example 110, (1S,2R)-2-((S)-5-chloro-7-fluoro-8-((1-methyl-1H-1,2,3-triazol-4-yl)methoxy)-1-((6-oxo-5-azaspiro[2.4]heptan-5-yl)methyl)-1,2,3,4-tetrahydroisoquinoline-2-carbonyl)-N,1-dimethylcyclohexane-1-carboxamide] were 7.1 nM and 66 nM.
Turning to `C[C@]1(C(N)=O)CCCC[C@H]1C(=O)N1CCc2c(Cl)cc(F)c(OCc3nnn4c3CCCC4)c2[C@H]1CN1CC2(CC2)CC1=O` [Example 111, (1S,2R)-2-((S)-5-chloro-7-fluoro-1-((6-oxo-5-azaspiro[2.4]heptan-5-yl)methyl)-8-((4,5,6,7-tetrahydro-[1,2,3]triazolo[1,5-a]pyridin-3-yl)methoxy)-1,2,3,4-tetrahydroisoquinoline-2-carbonyl)-1-methylcyclohexane-1-carboxamide], it took 7.2 nM to reach half-maximal inhibition in experiment [1] (IC50). For the same compound, in experiment [2], the EC50 amounted to 30 nM.
As to `Cc1c(COc2c(F)cc(Cl)c3c2[C@@H](CN2CC4(CC4)CC2=O)N(C(=O)[C@@H]2CCCC[C@]2(C)C(N)=O)CC3)nnn1C` [Example 112, (1S,2R)-2-((S)-5-chloro-8-((1,5-dimethyl-1H-1,2,3-triazol-4-yl)methoxy)-7-fluoro-1-((6-oxo-5-azaspiro[2.4]heptan-5-yl)methyl)-1,2,3,4-tetrahydroisoquinoline-2-carbonyl)-1-methylcyclohexane-1-carboxamide], in experiment [1], half-maximal inhibition (IC50) required 7 nM. In experiment [2], the EC50 was 99 nM.
In experiment [1], `CNC(=O)[C@@]1(C)CCCC[C@H]1C(=O)N1CCc2c(Cl)ccc(OCc3nnn(C)c3C3CC3)c2[C@H]1CN1C[C@H](C)CC1=O` [Example 113, (1S,2R)-2-((S)-5-chloro-8-((5-cyclopropyl-1-methyl-1H-1,2,3-triazol-4-yl)methoxy)-1-(((R)-4-methyl-2-oxopyrrolidin-1-yl)methyl)-1,2,3,4-tetrahydroisoquinoline-2-carbonyl)-N,1-dimethylcyclohexane-1-carboxamide] showed an IC50 of 10.9 nM. In addition, in experiment [2], the EC50 stood at 299 nM.
For `CNC(=O)[C@H]1CCCC[C@H]1C(=O)N1CCc2c(Cl)ccc(OCc3nnn(C)c3C(F)F)c2[C@H]1CN1CC2(CC2)CC1=O` [Example 114, (1S,2R)-2-((S)-5-chloro-8-((5-(difluoromethyl)-1-methyl-1H-1,2,3-triazol-4-yl)methoxy)-1-((6-oxo-5-azaspiro[2.4]heptan-5-yl)methyl)-1,2,3,4-tetrahydroisoquinoline-2-carbonyl)-N-methylcyclohexane-1-carboxamide], half-maximal inhibition in experiment [1] (IC50) was put at 9.1 nM. Also, the EC50 in experiment [2] is 230 nM.

For orientation: IC50 means the concentration needed to halve the response being measured. What is called EC50 is the midpoint of the concentration-response curve.
